In patent US8017600B2, “Imidazole compounds” (Janssen Pharmaceutica NV, priority 2004, dated 2011):

Columns and labels:
[1] = tested on: human eosinophils; assay: Inhibition of histamine-induced eosinophil shape change (gated autofluorescence forward scatter assay); conditions: for Fold Change: eosinophil shape change, 10 μM antagonist; for effect on histamine-induced shape change: human eosinophils, result in words
[2] = target: T1, human histamine H4 receptor (Homo sapiens, UniProt Q9H3N8); assay: Binding assay on recombinant human histamine H4 receptor (3H-histamine displacement); conditions: membranes of SK-N-MC or COS7 cells expressing human H4 receptor, Cheng-Prusoff
T1 construct: expressed in transfected cells; host or cells: SK-N-MC cells or COS7 cells, transient transfection; cell membranes
Method: SK-N-MC cells or COS7 cells were transiently transfected with pH4R and grown in 150 cm^2 tissue culture dishes. Cells were washed with saline solution, scraped with a cell scraper and collected by centrifugation (1000 rpm, 5 min). Cell membranes were prepared by homogenization of the cell pellet in 20 mM Tris-HCl with a polytron tissue homogenizer for 10 sec at high speed. Homogenate was centrifuged at 1000 rpm for 5 min at 4° C. The supernatant was then collected and centrifuged at 20,000×g for 25 min at 4° C. The final pellet was resuspended in 50 mM Tris-HCl. Cell membranes were incubated with ^3H-histamine (5-70 nM) in the presence or absence of excess histamine (10,000 nM). Incubation occurred at room temperature for 45 min. Membranes were harvested by rapid filtration over Whatman GF/C filters and washed 4 times with ice-cold 50 mM Tris HCl. Filters were then dried, mixed with scintillant and counted for radioactivity. SK-N-MC or COS7 cells expressing human histamine H4 receptor were used to measure the affinity of binding of other compounds and their ability to displace ^3H-ligand binding by incubating the above-described reaction in the presence of various concentrations of inhibitor or compound to be tested.

| Ki [2] | Structure (SMILES) | also measured |
| --- | --- | --- |
| – | CN(C)CCOC(c1ccccc1)c1ccccc1 [diphenhydramine] | Fold Change ([1]; histamine 0 μM): 1.00; Fold Change ([1]; histamine 0.01 μM): 1.03; Fold Change ([1]; histamine 0.1 μM): 1.18; Fold Change ([1]; histamine 1 μM): 1.50; Fold Change ([1]; histamine 10 μM): 1.63; effect on histamine-induced shape change [1]: did not alter the histamine-induced shape change |
| – | CN1CCN(C(=O)c2cc3cc(Cl)ccc3[nH]2)CC1 [H4 Antagonist, (5-chloro-1H-indol-2-yl)-(4-methyl-piperazin-1-yl)-methanone] | IC50 ([1]; Homo sapiens, Eosinophil, read-out: IC50 of inhibition of histamine-induced eosinophil shape change): 270 nM |
| – | CNC(=C[N+](=O)[O-])NCCSCc1ccc(CN(C)C)o1 [ranatidine] | Fold Change ([1]; histamine 0 μM): 1.00; Fold Change ([1]; histamine 0.01 μM): 1.04; Fold Change ([1]; histamine 0.1 μM): 1.21; Fold Change ([1]; histamine 1 μM): 1.49; Fold Change ([1]; histamine 10 μM): 1.64; effect on histamine-induced shape change [1]: did not alter the histamine-induced shape change |
| 2510 nM | Cc1nc(-c2ccc(OCCCN3CCN(C)CC3)cc2Cl)[nH]c1C [Example 43, 1-{3-[3-Chloro-4-(4,5-dimethyl-1H-imidazol-2-yl)-phenoxy]-propyl}-4-methyl-piperazine] | – |
| 100 nM | CCc1[nH]c(-c2ccc(OCCCC3CCN(C)CC3)cc2Cl)nc1C [Example 25, 4-{3-[3-Chloro-4-(5-ethyl-4-methyl-1H-imidazol-2-yl)-phenoxy]-propyl}-1-methylpiperidine] | – |
| 33 nM | Cc1[nH]c(-c2cccc(OCCCCC3CCN(C)CC3)c2)nc1-c1ccc(Cl)cc1 [Example 34, 4-(4-{3-[4-(4-Chloro-phenyl)-5-methyl-1H-imidazol-2-yl]-phenoxy}-butyl)-1-methyl-piperidine] | – |
| 230 nM | Cc1[nH]c(-c2ccc(OCCCN3CCN(C)CC3)nc2)nc1-c1ccc(C(F)(F)F)cc1 [Example 32, 1-Methyl-4-(3-{5-[5-methyl-4-(4-trifluoromethyl-phenyl)-1H-imidazol-2-yl]-pyridin-2-yloxy}-propyl)-piperazine] | – |
| 1960 nM | CN1CCN(CCCOc2ccc(-c3ncc[nH]3)cc2Cl)CC1 [Example 42, 1-{3-[2-Chloro-4-(1H-imidazol-2-yl)-phenoxy]-propyl}-4-methyl-piperazine] | – |
| 44 nM | COc1ccc(-c2nc(-c3ccc(OCCCN4CCN(C)CC4)cc3Cl)[nH]c2-c2ccc(OC)cc2)cc1 [Example 4, 1-(3-{4-[4,5-Bis-(4-methoxy-phenyl)-1H-imidazol-2-yl]-3-chloro-phenoxy}-propyl)-4-methyl-piperazine] | – |
| 64 nM | Cc1[nH]c(-c2ccc(OCCCC3CCN(C)CC3)nc2)nc1-c1ccc(C(F)(F)F)cc1 [Example 30, 2-[3-(1-Methyl-piperidin-4-yl)-propoxy]-5-[5-methyl-4-(4-trifluoromethyl-phenyl)-1H-imidazol-2-yl]-pyridine] | – |
| 230 nM | Cc1cc(OCCCC2CCN(C)CC2)ccc1-c1nc(C)c(CC(C)C)[nH]1 [Example 38, 4-{3-[4-(5-Isobutyl-4-methyl-1H-imidazol-2-yl)-3-methyl-phenoxy]-propyl}-1-methyl-piperidine] | – |
| 60 nM | COc1cccc(-c2nc(-c3ccc(OCCCN4CCN(C)CC4)c(F)c3)[nH]c2-c2cccc(OC)c2)c1 [Example 8, 1-(3-{4-[4,5-Bis-(3-methoxy-phenyl)-1H-imidazol-2-yl]-2-fluoro-phenoxy}-propyl)-4-methyl-piperazine] | – |
| 155 nM | CN1CCC(CCCOc2ccc(-c3nc4c([nH]3)CCCC4)c(Cl)c2)CC1 [Example 23, 2-{2-Chloro-4-[3-(1-methyl-piperidin-4-yl)-propoxy]-phenyl}-4,5,6,7-tetrahydro-1H-benzoimidazole] | – |
| 244 nM | CN1CCN(CCCOc2ccc(-c3nc(-c4ccccc4Cl)c(-c4ccccc4Cl)[nH]3)c(Cl)c2)CC1 [Example 3, 1-(3-{4-[4,5-Bis-(2-chloro-phenyl)-1H-imidazol-2-yl]-3-chloro-phenoxy}-propyl)-4-methyl-piperazine] | – |
| 37 nM | COc1cccc(-c2nc(-c3ccc(OCCCC4CCN(C)CC4)cc3Cl)[nH]c2-c2cccc(OC)c2)c1 [Example 21, 4-(3-{4-[4,5-Bis-(3-methoxy-phenyl)-1H-imidazol-2-yl]-3-chloro-phenoxy}-propyl)-1-methyl-piperidine] | – |
| 33 nM | Cc1cc(OCCCC2CCN(C)CC2)ccc1-c1nc(-c2ccc(Cl)cc2)c(C)[nH]1 [Example 47, 4-(3-{4-[4-(4-Chloro-phenyl)-5-methyl-1H-imidazol-2-yl]-3-methyl-phenoxy}-propyl)-1-methyl-piperidine] | – |

| Structure (SMILES) | Ki [2] | also measured |
| --- | --- | --- |
| Cc1[nH]c(-c2ccnc(OCCCCC3CCN(C)CC3)c2)nc1-c1ccc(Cl)cc1 [Example 39, 4-[4-(4-Chloro-phenyl)-5-methyl-1H-imidazol-2-yl]-2-[4-(1-methyl-piperidin-4-yl)-butoxy]-pyridine] | 230 nM | – |
| Cc1[nH]c(-c2ccnc(OCCCCC3CCN(C)CC3)c2)nc1-c1cccc(C(F)(F)F)c1 [Example 37, 2-[4-(1-Methyl-piperidin-4-yl)-butoxy]-4-[5-methyl-4-(3-trifluoromethyl-phenyl)-1H-imidazol-2-yl]-pyridine] | 174 nM | – |
| CN1CCC(CCCCOc2cc(-c3nc(-c4ccccc4)c(C(F)(F)F)[nH]3)ccn2)CC1 [Example 36, 2-[4-(1-Methyl-piperidin-4-yl)-butoxy]-4-(4-phenyl-5-trifluoromethyl-1H-imidazol-2-yl)-pyridine] | 54 nM | – |
